Consider 1 substance from US9927437B2, “Treating neurodegenerative disease” (THE BRIGHAM AND WOMEN'S HOSPITAL, INC., priority 2013, dated 2018).

One data set relates to EAE NOD mice. The data set can be described thus: EAE in NOD mice, progressive phase (clinical score, histopathology, body weight). It is filed as in vivo. Particulars: NOD EAE; i.c.v. 1×10^7 IU lentivirus at day 35.
The next data set relates to B4GALT5/6. Briefly: Quantification of LacCer levels in the CNS (LC-MS/MS). It is filed as in vivo, mouse. Conditions: NOD EAE; i.c.v. 1×10^7 IU lentivirus at day 35, 10 days after injection. Here is the method: Chemical standards of LacCer (d18:1/16:0) and LacCer (d18:1/18:0) were obtained from Avanti Polar Lipids. Quantification of LacCer (d18:1/16:0) and LacCer (d18:1/18:0) was achieved by LC-MS/MS analysis performed on an Agilent (Agilent Technologies, Santa Clara, Calif.) 6460 triple-quadrupole LC/MS/MS system. The fragments from the [M+H]^+ ions for LacCer and internal standard were subjected to collision induced dissociation and the two major types of fragment ions were monitored via electrospray ionization in the positive ion mode in multiple reaction monitoring (MRM) mode for each ion. These two MRM transitions corresponded to the loss of the neutral lactosyl moiety, and to the formation of the lactose ion. Specifically, the MRM transitions used for quantification for LacCer (d18:1/16:0) and LacCer(d18:1/18:0) were 862.5>[…] and 890.6>548.5, respectively. Secondary confirmatory MRM transitions for LacCer(d18:1/16:0) and LacCer(d18:1/18:0) of 862.5>264.3 and 890.6>264.3 were also monitored. Mass spectrometer parameter settings were gas temp (325° C.), gas flow (12 L/min), nebulizer (25 psi), sheath gas temp (400° C.), sheath gas flow (12 L/min), capillary voltage (4000v), and nozzle voltage (500v). Liquid chromatography conditions with an a Phenomenex Gemini C18 column 4.6×50 mm 5 μm particle size was used for separation. Chromatography method the following flow rate=0.4 mLs/min; solvent A=5 mM ammonium formate in 5% MeOH and 0.1% formic acid v/v/v; solvent B=80% 2-propanol, 15% methanol, 5% water and 0.1% formic acid (v/v/v/v). […] Standard curve mixture was analyzed at various concentrations between 0.10 nM to 3.3 μM in LacCer (d18:1/16:0) and an internal standard concentration of 1 μM. The lower limit of quantification was estimated at 1 nM and a R^2 of 0.9969 was obtained using linear regression analysis. […]
The brain tissue was weighed and homogenized using a Dounce homogenizer (VWR), in the extraction solvent using a Bligh and Dyer type liquid-liquid extraction. […] The dried sample was reconstituted in 100 μl of 2:1 chloroform-methanol, and analyzed using the HPLC-MS.

For the next data set, the system named is astrocytes. The data set can be described thus: mRNA expression in astrocytes isolated from EAE NOD mice (nCounter, qPCR). It is filed as in vivo, mouse. Particulars: NOD EAE; i.c.v. lentivirus at day 35, qPCR. As to the method:
Mononuclear cells were isolated from the CNS as previously described^50 with minor modifications. Naïve and EAE mice were euthanatized, and then subjected to perfusion through the left ventricle with ice-cold sterile PBS. Brains and spinal cord were then removed, minced and enzymatically dissociated with 0.05% (w/v) collagenase type III (Worthington Biochemical), 0.5% Dispase II (Roche Applied Science), 40 μg/ml DNAse I, 20 mM HEPES in HBSS) for 30 min at 37 C to make a suspension of single cells. Enzymes were inactivated with 20 ml of Ca^2+/Mg^2+-free HBSS containing 2 mM EDTA and 20 mM HEPES. The digested tissue was triturated and passed through a […] cell strainer. Cells were centrifuged and resuspended in 30% isotonic Percoll (GE Healthcare) and 40 μg/ml DNAse I, underlined by 70% isotonic Percoll, and centrifuged at 1000×g at 4° C. for 25 min. Cells were collected from the 70%-30% interphase, and sorted by FACS Aria.
These purification procedures are based on previously described dissociation and purification protocols^50,51. Isolated CNS cells, were incubated with anti-Mouse CD16/CD32 for 15 min on ice to block the Fc receptors, and stained with fluorochrome-conjugated antibody for CD11b (M1/70), CD45(90), CD3 (145-2C11), CD4 (GK1.5), and Ly6C (HK1.4), and Biotion-conjugated GSL I—isolectin B4 (Vector labs), CD105 (N418), CD140a (APA5), CD11c (N418), F4/80 (BM8), O4 (O4, Miltenyi Biotec), and CD19 (eBio1D3), and un-conjugated antibodies recognizing mouse MOG (8-18C5, Millipore), O1 (O1), and Galactocerebroside (mGlaC, Millipore). All antibodies were from Ebioscience, unless otherwise mentioned (clone number, when relevant, in parentheses). Cells were washed and incubated PE-conjugated Streptavidin and R-Phycoerythrin AffiniPure F(ab′)2 fragment of Goat Anti-Mouse IgG+IgM (H+L) (Jackson ImmunoResearch laboratories) for 20 min at 4 C in the dark. Cells were washed, incubated with 7-AAD or Fixable Viability Dye eFluor® 450 (if cells were to be used for intracellular staining), for exclusion of dead cells (FIG. S3A), and sorted as following. Microglia were sorted as CD11b^+ cells with low CD45 expression and low Ly6C (CD11b+/CD45^low/Ly6C^low), while the inflammatory monocytes were considered as CD11b^+/Ly6C^high 52. T-cells were sorted as CD3^+CD4^+ cells. Astrocytes were isolated following the depletion of lymphocytes, microglia, monocytes (FIG. S3B), and oligodendrocytes, and lymphocytes (T-cells, B-cells, and NK cells) (FIG. S3C). […] We confirmed that we had isolated a relatively pure populations of astrocytes by qPCR for the astrocyte markers^44,51 gfap, aldh1l1 and aqp4, and found them to be exclusively expressed in the astrocyte fraction (in a similar expression pattern to that of GFP^+ astrocytes sorted from Tg(GFP-hGFAP) FVB transgenic mice^49) (FIG. S3E). We used an additional cohort of markers to explore for presence of immune cells [microglia/monocytes cells—itgam (CD11b), and emr1 (F4/80), dendritic cells—itgax (CD11c), NK cells—Klrb1c (Nk1.1), T-cells—cd3, and B-cells—cd19], oligodendrocytes (mog, mbp), and neurons (syt1, snap25) (FIG. S3F, G).
100-200 ng of total RNA was hybridized with reporter and capture probes for nCounter Gene Expression code sets (Mouse Inflammation Kit, or a custom made astrocyte-oriented probe set (Table S1)), according to manufacturer's instructions (NanoString Technologies). Data were normalized to spiked positive controls and housekeeping genes (nSolver Analysis system). Transcript counts less than the mean of the negative control transcripts plus 2 standard deviations for each sample were considered background.
Nanostring generated gene expression data were analyzed by use of the Expander 6.06 platform^53. Genes were clustered using the unbiased CLICK algorithm, and each cluster was further analyzed for enrichments in transcription factors binding sites (promoter analysis).
For orientation: Quantitative PCR measures a nucleic acid by following its amplification.

Another data set has as its system C8-D30 astrocytes. Briefly: In vitro knock-down with shRNA in C8-D30 astrocytes, LPS/IFNγ activation. It is filed as cell-based, mouse. Particulars: lentivirus-delivered shRNA.

“shB4galt5: lentivirus-delivered shRNA against b4galt5 (TRCN0000018782; SEQ ID NO:2) (guide GCAGCCTGAATGACTCAGATTCTCGAGAATCTGAGTCATTCAGGCTGC)”: the EAE disease progression entry in the data set with EAE NOD mice is “but not of b4galt5, suppressed disease progression”. In the data set with B4GALT5/6, the “CNS LacCer levels” value was “but not of b4galt5, led to a significant decrease of CNS LacCer levels”. Further, the “b4galt6 and b4galt5 expression in astrocytes” value in the data set on astrocytes is “astrocyte-specific knock-down”. In addition, the “up-regulation of h2-Aa, ccl5 and cxcl10 expression” value in the data set with C8-D30 astrocytes was “did not affect the expression”.
